Test results from patent publication US5942521A, “Quinolinone derivative and anti-allergic agent with said quinolinone derivative as the active ingredient” (Dainippon Ink and Chemicals, Inc., priority 1996, dated 1999).

Key:
Assay type in all cases: in vivo
[1] = tested on: immediate type asthmatic response; experiment: Effect on experimental immediate type asthma model in guinea pigs; conditions: airway resistance 1 minute after challenge
Text: (§1) Effect on experimental immediate and delayed type asthma model in guinea pigs
(§2) The asthma is typical allergic disease and we carried out this pharmacological test by experimental asthmatic model in guinea pigs in order to confirm that the compounds of the present invention, compound 21, 41 and 46, suppress immediate and delayed type asthmatic response. In the following, the method of the pharmacological test will be explained.
(§3) Method: Male hartley guinea pigs were sensitized by exposured aerosolized ovalbumine (OVA) (1% in saline) for 10 minutes per a day at eight times. The aerosol was generated by an ultrasonic nebulizer (NE-U12, Omuron inc.). One week after final sensitization, the animals were challenged with inhalation of OVA (2% in saline) for 5 minutes. The animals were pretreated with metyrapone (10 mg/kg, i.v.) at 1 and 4 hours before the challenge, and pyrilamine (10 mg/kg, i.p.) at 30 minutes before the challenge. airway resistance in the conscious animals were measured for 1 minute with PULMOS-1(made in Medical Interface Project Station Inc.) at 1 minute, 2, 4, 5, 6, 7, 8 and 23 to 24 hours after the challenge. Compound 21, 41 and 46 (test compound) suspended in 0.5% methylcellulose (MC) solution were given orally at doses of 5, 10 and 20 mg/kg 1 hour before and 3 hours after the challenge. As a positive control group, Prednisolone was given orally at a dose of 10 mg/kg 2 hours and 16 hours before the challenge. As vehicle control group, only 0.5% MC solution was given orally.
(§4) The evaluation of the effect of the compounds on immediate and delayed type asthmatic response was undertaken with percentage of change in airway resistance 1 minute after the challenge and the area under the response curve for percentage of change in airway resistance between 4 and 8 hours after the challenge, respectively. The inhibition (%) of the compounds for immediate and delayed type asthmatic response was calculated according to equation 4 and the result was shown in table 3. Each experimental group consisted of 8 guinea pigs.
(§5) Inhibition (%)=(A-B)/A×100 (equation 4)
(§6) A: percentage of change in airway resistance in vehicle control group
(§7) B: percentage of change in airway resistance in test compound group or positive control group

[2] = tested on: delayed type asthmatic response; experiment: Effect on experimental delayed type asthma model in guinea pigs; conditions: AUC of airway resistance 4-8 hours after challenge
Text: as §1, §2, §3, §4, §5, §6, §7

[3] = tested on: passive cutaneous anaphylaxis (PCA) reaction; experiment: Effect on homologous passive cutaneous anaphylaxis (PCA) reaction in rats; conditions: Rattus norvegicus, po, 0.5 h; test compounds, 100 mg/kg p.o., 1 hour before induction of anaphylaxis, male wistar rats
Experimental: Effect on homologous passive cutaneous anaphylaxis (PCA) reaction in rats
This experimental animal model is caused by immediate type allergic reaction, namely, antigen-antibody reaction. In the following, the method of this pharmacological test will be explained.
Method: Male wistar rats (9 weeks old) were intradermally administered 0.05 ml of anti-serum against dinitrophenylated ascaris (DNP-As) into two sites on the shaved dorsal skin. 48 hours later, aminoquinolinone derivatives (test compounds) suspended in 0.5% methylcellulose (MC) were given orally at a dose of 100 mg/kg to the animals. 1 hour after administration of Test compounds, the animals were induced anaphylaxis by injection of saline (1 ml) dissolving 1 mg of trinitrophenylated ascaris (TNP-As) and 5 mg of Evans Blue into the tail vein of the animals. 30 minutes after induction of anaphylaxis, animals were anesthetized by ether and killed by bleeding, and were flayed dorsal skin. The leakage of dye was assessed by measuring the diameter (mean of shortest and longest diameter) of the blue spot on the inside surface of dorsal skin. As vehicle control group, only 0.5% MC solution was administered orally, and as positive control group, Tranilast suspended in 0.5% MC were administered orally at a dose of 200 mg/kg to the animals with the same method as the test compounds groups, The inhibition (%) of PCA reaction was calculated according to equation 1 and the result was shown in Table 1. Each experimental group consisted of 5 rats.
In the conditions of this experiment, it was considered that the compound, which inhibited PCA reaction by over forty (40) percent against that in vehicle control group, was evidently effective for immediate type allergy.
Inhibition (%)=(A-B)/A×100 (Equation 1)
A: leakage of dye in vehicle control group
B: leakage of dye in test compound group or positive control group

[4] = tested on: contact dermatitis induced by picryl chloride; experiment: Effect on contact dermatitis induced by picryl chloride in mice; conditions: Mus musculus, po; test compounds, 20 mg/kg p.o. 12 hours after challenge; ear thickness at 24 hours; read-out: Inhibition (%) of increase of ear thickness
Experimental: Effect on contact dermatitis induced by picryl chloride in mice
The delayed type hypersensitization is inhibited by steroid, but can not be effected by known anti-allergic agents. In the following, the method of the pharmacological test will be explained.
Method: Mice, shaved their abdominal skin on previous day, were immunized by applying 0.1 ml of acetone containing 7 mg of picryl chloride to the skin of the abdomen. 7 days after immunization, the thickness of the ear was measured with a dial thickness gauge, then mice were challenged by painting […] of 1% picryl chloride olive oil solution to each side skin of left ear. 24 hours after challenge, the thickness of the left ear was measured again. The compounds of the present invention (test compounds) suspended in 0.5% MC were forcibly administered orally at a dose of 20 mg/kg 12 hours after challenge. As vehicle control group, only 0.5% MC solution was administered orally, and as positive control group, Prednisolone, steroid hormone, was administered orally at a dose of 10 mg/kg and as negative control group, Tranilast was administered orally at a dose of 200 mg/kg.
Increase (%)=(A-B)/B×100 (Equation 2)
A: thickness of the ear at 24 hours after challenge
B: thickness of the ear before challenge
Inhibition (%)=(C-D)/C×100 (Equation 3)
C: The increase (%) in vehicle control group
D: The increase (%) in test compounds group, positive control group

[5] = 5 mg/kg p.o. 1 hour before and 3 hours after challenge
[6] = 10 mg/kg p.o. 1 hour before and 3 hours after challenge
[7] = 20 mg/kg p.o. 1 hour before and 3 hours after challenge

Row | SMILES | inhibition (%), immediate type asthma [1, 5] [%] | inhibition (%), immediate type asthma [1, 6] [%] | inhibition (%), immediate type asthma [1, 7] [%] | inhibition (%), delayed type asthma [2, 5] [%] | inhibition (%), delayed type asthma [2, 6] [%] | inhibition (%), delayed type asthma [2, 7] [%] | inhibition in vivo at 100 mg/kg [3] [%] | inhibition in vivo at 20 mg/kg [4] [%]
1 | CCCCCCOc1c(O)c2ccc(N)cc2n(C)c1=O [compound 21, 7-amino-3-hexyloxy-4-hydroxy-1-methyl-2(1H)-quinolinone] | 20 | 30 | 31 | 23 | 39 | 48 | 60 | 51
2 | CCCCCCCCOc1c(O)c2ccc(NC(=O)/C=C/c3cc(OC)c(O)c(OC)c3)cc2n(C)c1=O [compound 41, 7-(3,5-dimethoxy-4-hydroxycinnamoylamino)-3-octyloxy-4-hydroxy-1-methyl-2(1H)-quinolinone] | 26 | 31 | 43 | 39 | 54 | 84 | 53 | 50
3 | C=CCNc1ccc2c(O)c(OCCCCCCCC)c(=O)n(C)c2c1 [compound 46, 7-(2-propenylamino)-3-octyloxy-4-hydroxy-1-methyl-2(1H)-quinolinone] | 30 | 28 | 33 | 32 | 44 | 53 | 46 | 55
